In brackets after ≈: the same amount, converted by molar mass. Like-named read-outs stand apart in the source and are kept apart here.
Assays:
[1] = tested on: Staphylococcus aureus Mu 3 (Hetero VISA)
[2] = tested on: Staphylococcus aureus Mu 50 (VISA); conditions: Mu 50 VISA
[3] = tested on: Staphylococcus aureus IL-A (Hetero VISA)
[4] = tested on: Staphylococcus aureus IL-F (VISA)
[5] = tested on: Staphylococcus aureus 8325 (susceptible); conditions: for MIC: 8325 susceptible
[6] = tested on: Staphylococcus aureus IL-A (Hetero VISA); assay: microbe, parasite or virus in culture
[7] = tested on: Staphylococcus aureus IL-F (VISA); assay: microbe, parasite or virus in culture
[8] = tested on: Staphylococcus aureus Mu 50 (VISA); assay: microbe, parasite or virus in culture
[9] = tested on: Staphylococcus aureus 8325 (susceptible); assay: microbe, parasite or virus in culture
[10] = tested on: Staphylococcus aureus Mu 3 (Hetero VISA); assay: microbe, parasite or virus in culture
[11] = tested on: MCF-7/ADR; conditions: resistant MCF-7/ADR; cited from earlier work
[12] = cited from earlier work; for tolerance by mice: doxoform: doses as low as 1 mg/kg, epidoxoform: up to 150% of MTD of doxorubicin
[13] = tested on: MCF-7; conditions: sensitive MCF-7; cited from earlier work
[14] = buffer, pH 7.4; cited from earlier work
[15] = tested on: MDA-MB-23 1, and BT-20 human breast cancer cells; conditions: cited from earlier work
[16] = cell line not stated; cited from earlier work
[17] = tested on: human breast cancer xenografts; conditions: same time period (10 days); cited from earlier work
[18] = tested on: E. coli ATCC 25922; conditions: cited from earlier work
[19] = tested on: 3T3 mouse fibroblasts; conditions: cited from earlier work
[20] = tested on: S. aureus ATCC 25723; conditions: cited from earlier work
[21] = tested on: P. aeruginosa ATCC 27853; conditions: cited from earlier work
[22] = tested on: Human erythrocytes; conditions: cited from earlier work
[23] = Water solubility and storage stability of RGD constructs

## O=C(NCN1CCN(c2cc3c(cc2F)c(=O)c(C(=O)O)cn3C2CC2)CC1)c1ccccc1O [Ciprosaliform, N-(2-Hydroxybenzamido-methyl)-ciprofloxacin]
[1]; 24 hr
  MIC: 4 µM (≈ 1.92 µg/mL)
[1]; 48 hr
  MIC: 8 µM (≈ 3.84 µg/mL)
[2]; 24 hr
  MIC: 4 µM (≈ 1.92 µg/mL)
[2]; 48 hr
  MIC: 8 µM (≈ 3.84 µg/mL)
[3]; 24 hr
  MIC: 8/8 μM
[3]; 48 hr
  MIC: 8/8 μM
[4]; 24 hr
  MIC: 8/8 μM
[4]; 48 hr
  MIC: 8/8 μM
[5]; 24 hr
  MIC: 1/1 μM
[5]; 48 hr
  MIC: 1/1 μM
[5]; susceptible strain
  fold more active than ciprofloxacin: 6 fold

## CN[C@H](CC(C)C)C(=O)N[C@H]1C(=O)N[C@@H](CC(N)=O)C(=O)N[C@H]2C(=O)N[C@H]3C(=O)N[C@H](C(=O)N[C@H](C(=O)O)c4cc(O)cc(O)c4-c4cc3ccc4O)[C@H](O)c3ccc(c(Cl)c3)Oc3cc2cc(c3O[C@@H]2O[C@H](CO)[C@@H](O)[C@H](O)[C@H]2O[C@H]2C[C@](C)(N)[C@H](O)[C@H](C)O2)Oc2ccc(cc2Cl)[C@H]1O [Vancomycin, vancomycin]
[6]; 24 h
  MIC: 1 µM (≈ 1.45 µg/mL)
[6]; 48 h
  MIC: 1 µM (≈ 1.45 µg/mL)
[7]; 24 h
  MIC: 3 µM (≈ 4.35 µg/mL)
[7]; 48 h
  MIC: 3 µM (≈ 4.35 µg/mL)
[8]; 24 h
  MIC: 4 µM (≈ 5.8 µg/mL)
[8]; 48 h
  MIC: 4 µM (≈ 5.8 µg/mL)
[9]; 24 h
  MIC: 0.3 µM (≈ 0.435 µg/mL)
[9]; 48 h
  MIC: 0.3 µM (≈ 0.435 µg/mL)
[10]; 24 h
  MIC: 0.5 µM (≈ 0.725 µg/mL)
[10]; 48 h
  MIC: 1 µM (≈ 1.45 µg/mL)

## COc1cccc2c1C(=O)c1c(O)c3c(c(O)c1C2=O)C[C@@](O)(C(=O)CO)C[C@@H]3OC1CC2C(OCN2CN2COC3C(C)OC(O[C@H]4C[C@](O)(C(=O)CO)Cc5c(O)c6c(c(O)c54)C(=O)c4c(OC)cccc4C6=O)CC32)C(C)O1 (stereo partly drawn) [doxoform]
[11]
  times as potent as doxorubicin: 10,000 times
[12]
  tolerance by mice: poorly tolerated
[13]
  times as potent as doxorubicin: 250 times

## COc1cccc2c1C(=O)c1c(O)c3c(c(O)c1C2=O)C[C@@](O)(C(=O)CO)C[C@@H]3O[C@H]1C[C@H]2C(OCN3CN2CO[C@H]2[C@@H](C)O[C@@H](O[C@H]4C[C@](O)(C(=O)CO)Cc5c(O)c6c(c(O)c54)C(=O)c4c(OC)cccc4C6=O)C[C@@H]23)[C@H](C)O1 (stereo partly drawn) [epidoxoform]
[12]
  tolerance by mice: well tolerated
[12]; relative to doxorubicin
  efficacy in mice: improved efficacy in mice, relative to doxorubicin
[14]
  half-life: 2 h

## O=c1c(-c2ccc(O)cc2)coc2cc(O)cc(O)c12 [genistein]
[15]
  antitumor activity: 120 µM
[16]
  IC50: 120 µM
[17]
  increase in tumor size: > 200%

## (KLAKKLA)2: antimicrobial peptide (KLAKKLA)2 SEQ ID NO: 3 (microbe homing peptide)
[18]
  MIC (bacterial lysis): 6 µM
[19]
  sub-lethal concentration (lysis): >272 µM
[20]
  MIC (bacterial lysis): 6 µM
[21]
  MIC (bacterial lysis): 3 µM
[22]
  sub-lethal concentration (lysis): >750 µM

## RGD-4C: peptide CDCRGDCFC; at b346 the form with disulfide bridges [reference compound]
[23]
  water solubility: poorly water soluble over a range of pH
